The source of these data is patent US10336757B2, “Treatment of neurodegenerative diseases through inhibition of HSP90” (Sloan-Kettering Institute for Cancer Research, priority 2006, dated 2019).

A short description of data set [1]: Experimentally determined logP by RP-HPLC. It is filed as physicochemical. Conditions: using RP-HPLC. The text has this: Compounds of this type may also be provided with a degradable or cleavable linker, such that monomeric agents are provided in vivo. In this embodiment, the dimeric form need not retain activity or the ability to cross the blood brain barrier, and the nature of the linker therefore is not relevant to activity, only to the ability to form active monomeric species. In general, moderately lipophilic drugs such as PUs cross the BBB by passive diffusion. A good structural understanding for the BBB permeability is still lacking, but several parameters are believed to facilitate such behavior. Lipophilicity was the first of the descriptors to be identified as important for CNS penetration. […] The mean value for ClogP for the marketed CNS drugs is 2.5. […] The rules for molecular weight in CNS drugs have been reviewed, where small molecules may undergo significant passive lipid-mediated transport through the blood brain barrier, when the molecular mass is kept in or below a 400- to 600-Da range (90). PU-DZ8 has a MW of 512. All the QSAR equations emphasize the importance of hydrogen bonding —CNS penetration requires 5 or less hydrogen bond acceptors (91). PU-DZ8 has 4. […] PSA has been used as a predictor for BBB penetration by many investigators (92). In general, drugs aimed at the CNS tend to have lower polar surface areas than other classes (93,94). […]

The target in the next data set is P-glycoprotein (Homo sapiens (Human), UniProt P08183). Nature of the data set: P-glycoprotein substrate status. It is filed as in vitro ADME. Conditions: purine scaffold therapeutic.
Data set [2] in a line: Assessment of PU-DZ8 brain levels by HPLC/MS/MS. It counts as in vivo, mouse. Conditions: 75 mg/kg i.p. Here is the method:
Assessment of PU-DZ8 brain levels. Concentrations of compound were determined and quantitated by a MRM mode using a tandem high-performance liquid chromatography-mass/mass spectrometry (HPLC/MS/MS). A weighed piece of brain was rinsed with saline isotonic solution, dried with gauze and then homogenized in mobile phase (acetonitrile (ACN)/0.1% formic acid=1.2/2.8, v/v). Haloperidol was added as internal standard. PU-DZ8 was extracted in methylene chloride, the organic layer was separated, speedily dried under vacuum and reconstituted in the mobile phase. Compound analysis was performed in the API 4000™ LC/MS/MS (Applied Biosystems) which was coupled with a Shimadzu LC system and a 96-well plate autosampler. A Gemini C18 column (5μ particle size, 50×4.6 mm I.D.) was used for the LC separation. The analyte was eluted under an isocratic condition for 4 min at a flow rate of 0.4 mL/min
One dose of PU-DZ8 (75 mg/kg) was administered intraperitoneally (i.p.) to female mice of 2.5-4 months in age (n=32) and animals were sacrificed in the interval of 0 to 36 h. Both aggregate-free Tau (S1) and insoluble Tau (P3) fractions were prepared from the subcortical and cortical regions of these mice. PU-DZ8 levels in the brain reached 0.35 μg/g (˜700 nM) at 4 h, and the pharmacologically relevant dose was retained for at least 12 h post-administration (0.2 μg/g, ˜390 nM).

The subject of data set [3] is mTau expression and phosphorylation, p35. Nature of the data set: 30 day Hsp90 inhibitor treatment of JNPL3 mice. It counts as in vivo. As to conditions: 30 days. Here is the method: JNPL3 female mice 6.5 months of age were treated for 30 days, 5 day/week, with the Hsp90 inhibitor PU-DZ8 (FIG. 5) or vehicle, or sacrificed for time zero, n=4/group. Brains were divided in subcortical and cortical regions and processed using the Greenberg and Davies extraction protocol. (77) Sarkosyl soluble fractions (S1) were analyzed by WB for p35 and Hsp70, and for tau epitopes found abnormally hyperphosphorylated in AD brains such as: 5202 and T205 recognized by ATB, T181 by AT270, T231 by AT180. These are putative cdk5/p35 sites. Protein bands were normalized to Hsp90 and plotted as relative units. […].
To investigate whether modulation of mTau could be sustained over a longer Hsp90 inhibitor-treatment period, without being toxic to mice, JNPL3 mice were subjected for 30 days to these agents. Female JNPL3 mice 6.5 months of age (n=10) were administered i.p. vehicle (n=5) or one of the Hsp90 inhibitors, PU24FC1 (200 mg/kg) or PU-DZ8 (75 mg/kg) (n=5), on a daily, five-times per week schedule and animals were sacrificed at 8 h following the last administered dose of inhibitor. […] Furthermore, no visible internal organ damage was detected at sacrifice upon gross inspection. Both S1 and P3 fractions extracted from the subcortical brain region of these mice were analyzed for mTau expression and phosphorylation.

For data set [4], the system named is p35 and Tau phosphorylation on Ser202. Nature of the data set: One dose PU-DZ8 in hTau mice, cortical S1 fractions. Conditions: 75 mg/kg i.p. It is filed as in vivo, mouse. Here is the method:
The majority of Tau pathology in hTau mice is located in the cortical brain region. These mice express six isoforms of non-mutant human Tau, but develop AD-like Tau-pathology. Heat-stable fractions (S1) prepared from cortical homogenates of these mice indicate an age-related accumulation of Tau phosphorylated at putative cdk5 sites. […] Aggregate-free Tau (S1) fractions were prepared from the cortical region of these mice and human Tau levels assessed by immunobloting with an antibody specific for 3-repeat domain Tau (RD3). By analogy to experiments on primary neuronal cultures and WT Tau transfected cells, the Hsp90 inhibitor had no effect on soluble WT Tau expression. […] The monoclonal antibody CP13 is commonly used to detect Tau pathology in both early and more advanced stages of Tau aggregate accumulation (41).

The conditions of data set [5]: cited from earlier work.

SMILES strings stand for the structures. Where “and” joins values, the source holds several entries; their conditions need not be identical. Equal values may be shown once.

P-glycoprotein, sequence (P08183 whole entry): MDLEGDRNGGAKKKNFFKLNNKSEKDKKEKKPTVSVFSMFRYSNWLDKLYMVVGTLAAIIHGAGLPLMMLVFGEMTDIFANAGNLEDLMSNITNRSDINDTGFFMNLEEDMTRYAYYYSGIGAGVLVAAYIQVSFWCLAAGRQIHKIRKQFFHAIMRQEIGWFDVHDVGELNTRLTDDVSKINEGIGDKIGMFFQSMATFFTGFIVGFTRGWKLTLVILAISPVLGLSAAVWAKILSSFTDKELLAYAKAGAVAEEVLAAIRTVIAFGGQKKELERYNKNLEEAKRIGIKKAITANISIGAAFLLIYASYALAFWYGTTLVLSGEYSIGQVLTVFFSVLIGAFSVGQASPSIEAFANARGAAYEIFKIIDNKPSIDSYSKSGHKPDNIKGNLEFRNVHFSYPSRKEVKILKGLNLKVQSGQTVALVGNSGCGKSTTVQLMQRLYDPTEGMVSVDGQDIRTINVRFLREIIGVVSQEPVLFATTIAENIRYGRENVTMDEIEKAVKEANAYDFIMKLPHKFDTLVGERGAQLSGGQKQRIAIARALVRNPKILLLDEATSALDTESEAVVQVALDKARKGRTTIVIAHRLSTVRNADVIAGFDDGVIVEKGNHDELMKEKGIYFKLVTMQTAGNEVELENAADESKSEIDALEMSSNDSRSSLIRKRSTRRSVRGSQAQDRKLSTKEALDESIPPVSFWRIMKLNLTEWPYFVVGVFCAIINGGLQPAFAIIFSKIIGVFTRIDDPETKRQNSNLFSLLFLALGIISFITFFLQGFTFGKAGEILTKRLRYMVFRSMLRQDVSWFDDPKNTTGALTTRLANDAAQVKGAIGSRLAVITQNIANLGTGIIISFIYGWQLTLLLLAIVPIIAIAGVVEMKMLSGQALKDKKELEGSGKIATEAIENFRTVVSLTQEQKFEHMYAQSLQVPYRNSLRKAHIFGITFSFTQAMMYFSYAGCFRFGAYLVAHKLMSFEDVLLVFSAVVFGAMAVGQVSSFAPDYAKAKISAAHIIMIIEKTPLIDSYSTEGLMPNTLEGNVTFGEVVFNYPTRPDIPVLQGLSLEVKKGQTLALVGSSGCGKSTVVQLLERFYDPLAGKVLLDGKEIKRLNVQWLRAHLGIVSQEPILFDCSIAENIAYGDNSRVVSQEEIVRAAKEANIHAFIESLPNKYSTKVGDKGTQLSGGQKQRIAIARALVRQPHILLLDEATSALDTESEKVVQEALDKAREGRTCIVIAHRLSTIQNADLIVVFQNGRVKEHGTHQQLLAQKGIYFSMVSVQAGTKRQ

As for `CC(C)NCCCn1c(Cc2cc3c(cc2I)OCO3)nc2c(N)nc(F)nc21` [PU-DZ8], the “experimentally determined logP” value in data set [1] is on record as 1.53. Further, at P-glycoprotein, the P-gp substrate entry is given as “not a substrate of P-pg”. In data set [2] (12 h post-administration), the “levels in the brain” value was 0.2 μg/g and ~390 nM. For the same compound, the “levels in the brain” value in data set [2] (at 4 h) is 0.35 μg/g and ~700 nM. In data set [3] (five-times per week i.p., PU24FC1 200 mg/kg or PU-DZ8 75 mg/kg), the “toxicity (animal weight, fur appearance, appetite, posture)” value is given as “No toxicity was observed”. Moreover, in data set [3] (subcortical brain region), the “Tau expression and phosphorylation in S1 and P3 fractions” value was “significant reduction in Tau expression and phosphorylation”; the “p35 in S1 fraction” value is given as “p35 reduction”. Moreover, in data set [4] (8 h post-administration), the “Tau phosphorylation on Ser202 (antibody CP13)” value is “alleviation of Tau phosphorylation” and the p35 levels result is “significant time-dependent reduction”. The “soluble WT Tau expression” value in data set [4] (cortical S1) is “no effect”. Also, in data set [5], the solubility entry was “water soluble”.
